Reference: US9273043B2, “TRPV1 antagonists including dihydroxy substituent and uses thereof” (Purdue Pharma L.P., priority 2011, dated 2016)
≈ marks a conversion by molar mass, not a printed value. Read-outs that look alike come from different tables or passages of the source.

Experiments:
human TRPV1 [1] = molecular target: T1, human TRPV1 (Homo sapiens (Human), UniProt Q8NER1); test: Capsaicin-based assay, Protocol 2, TRPV1/CHO cells (hCAP-CHO), Fluo-4 FLIPR; assay type: cell-based; details: 100 nM capsaicin, mean ± SEM
T1 sequence (Q8NER1 whole entry, looked up, the tested form may be a part): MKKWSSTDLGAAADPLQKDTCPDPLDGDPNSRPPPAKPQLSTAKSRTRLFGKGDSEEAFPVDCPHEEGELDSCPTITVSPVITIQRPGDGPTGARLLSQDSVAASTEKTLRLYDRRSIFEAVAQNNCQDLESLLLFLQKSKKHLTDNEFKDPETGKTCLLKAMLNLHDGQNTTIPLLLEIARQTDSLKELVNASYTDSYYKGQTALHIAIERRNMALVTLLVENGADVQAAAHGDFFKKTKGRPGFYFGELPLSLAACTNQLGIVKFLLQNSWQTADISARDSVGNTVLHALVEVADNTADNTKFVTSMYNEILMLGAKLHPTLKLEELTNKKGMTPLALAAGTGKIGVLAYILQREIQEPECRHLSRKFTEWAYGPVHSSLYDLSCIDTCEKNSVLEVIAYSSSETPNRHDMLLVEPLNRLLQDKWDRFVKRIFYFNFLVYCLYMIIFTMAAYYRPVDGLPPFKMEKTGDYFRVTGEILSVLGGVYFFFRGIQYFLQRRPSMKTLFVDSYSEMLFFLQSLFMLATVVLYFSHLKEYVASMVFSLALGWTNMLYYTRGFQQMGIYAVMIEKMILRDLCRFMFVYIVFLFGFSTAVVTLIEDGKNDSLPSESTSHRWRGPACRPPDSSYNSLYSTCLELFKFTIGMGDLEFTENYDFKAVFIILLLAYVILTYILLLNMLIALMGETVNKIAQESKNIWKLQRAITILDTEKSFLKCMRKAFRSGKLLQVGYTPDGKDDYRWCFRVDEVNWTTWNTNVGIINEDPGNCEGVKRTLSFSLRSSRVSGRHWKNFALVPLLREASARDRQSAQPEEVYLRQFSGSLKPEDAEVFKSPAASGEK
Text: The TRPV1/CHO cell line was generated as described below. […] The resulting PCR products were purified from agarose gels using Gel Band Purification Kit (GE Healthcare Bioscience) and were subcloned into pCR-Blunt vector (Invitrogen). The cloned cDNA was fully sequenced using a fluorescent dye-terminator reagent (BigDye Terminator ver3.1 Cycle Sequencing Kit, Applied Biosystems) and ABI Prism 3100 genetic analyzer (Applied Biosystems). The pCR-Blunt vector containing the hTRPV1 cDNA was subjected to restriction digestion with EcoR1. The restriction fragment was subcloned into expression vector pcDNA3.1(-) (Invitrogen) and named pcDNA3.1(-)-hVR1 plasmid. The sequence of the cDNA encoding TRPV1 is available at GenBank accession number AJ277028. […] The cells were transfected with the pcDNA3.1(-)-hVR1 plasmid using FuGENE6 (Roche) according to the manufacturer's protocol. 24 hr after transfection, neomycin-resistant cells were selected using 1 mg/mL G418 (Nacalai Tesque). […] The cells expressing hTRPV1 were cultured in the growth medium supplemented with 1 mg/mL G418. […] Capsaicin-based Assay: […] Subsequently, the cells were loaded by incubation in 0.1 mL of wash buffer containing Fluo-4 at 3 μM final concentration. After 1 hour, the cells were washed twice with 0.2 mL wash buffer and resuspended in 0.1 mL wash buffer. The plates were then transferred to a Fluorescence Imaging Plate Reader (Molecular Devices). Fluorescence intensity was monitored for 15 seconds to establish a baseline. […] The final concentration of the compound was adjusted to range from 100 μM to 1.5625 μM. […] Data were collected over the entire time course and analyzed using Excel and the curve-fitting formula GraphPad Prism.

human TRPV1 [2] = molecular target: T1, human TRPV1; test: pH-based assay, Protocol 2, TRPV1/CHO cells (hpH-CHO), Fura-2 Ca2+ influx; assay type: cell-based; details: pH 5.0-5.1 (H2SO4), mean ± SEM
Method: For Protocol 2, a Chinese Hamster Ovary cell line (CHO) that has been engineered to constitutively express human recombinant TRPV1 was used (TRPV1/CHO cells). The TRPV1/CHO cell line was generated as described below.
TRPV1/CHO cells were seeded in the 96-well clear-bottom black-wall plate (Nunc) at densities of 1-2×10^4 cells/well and grown in 100 μL of culture medium (alpha-MEM supplemented with 10% FBS, 20 mM HEPES, 1 mg/mL geneticin and 1% antibiotic-antimycotic mixed stock solution) for 1-2 days before the experiment.
(1) Culture medium was removed using an 8-channel-pipette (Rainin, USA) from the 96-well plate and the wells were refilled with 100 μL of loading buffer (20 mM HEPES, 115 mM NaCl, 5.4 mM KCl, 0.8 mM MgCl2, 1.8 mM CaCl2, 13.8 mM D-glucose, 2.5 mM probenecid, pH 7.4) containing 5 μM Fura-2 AM (Dojin, Japan).
(2) The 96-well plate was incubated at 37° C. for 45 min.
(3) The loading buffer was removed from each well. The cells were subsequently washed twice with 150 μL of measuring buffer (20 mM HEPES, 115 mM NaCl, 5.4 mM KCl, 0.8 mM MgCl2, 5.0 mM CaCl2, 13.8 mM D-glucose, 0.1% BSA, pH 7.4) (no probenecid). The wells were then refilled with 80 μL of measuring buffer.
(4) After an incubation at 4° C. for 15 min, the 96-well plate was transferred to a model FDSS-3000 plate reader apparatus (Hamamatsu Photonics K.K., Japan).
(5) The Fura-2 fluorescent intensity was monitored at a wavelength of 340 nm and at 380 nm, respectively, at a rate of 0.5 Hz for a total of 240 seconds. After 16 time points (32 sec) of baseline detection, 20 μL of agonist solution was added to each well. The final volume was 100 μL/well.
(6) Fluorescence intensity ratio refers to the fluorescence intensity at 340 nm over the fluorescence intensity at 380 nm at a particular time point. The baseline was set as the average of the fluorescent intensity ratios for the first 16 time points before the addition of agonist solution. The maximum response was the highest fluorescent intensity ratio during the 60 time points following addition of agonist solution.
(7) Maximal signal ratios from each well were calculated as output data using the FDSS-3000 analysis program. Data were analyzed using Excel (Microsoft) and XLfit (idbs) software.
In an “agonist plate,” two different agonist solutions with different H2SO4 concentrations were used for the pH assay (see, e.g., FIG. 3A of U.S. Patent Application Publication No. US 2009/0170868 A1). For the first half of a 96-well plate one agonist solution was used; for the second half the other agonist solution was used. The agonist solutions were obtained by diluting sulfuric acid (1M H2SO4) with measuring buffer. The concentrations for the two agonist solutions were determined as described above in Section 2 of Protocol 2.
The sulfuric acid concentrations between the two agonist solutions differed by 0.5 mM. In the experiment described in Section 2 of Protocol 2, the sulfuric acid concentrations in the agonist solutions were determined to be 16 mM and 16.5 mM, respectively. After 1:4 dilution of the agonist solutions, the final sulfuric acid concentration was 3.2 mM and 3.3 mM, respectively. The resulting pH value for the pH assay was 5.0 to 5.1.
Test compounds were dissolved in DMSO to yield 1 mM stock solutions. The stock solutions were further diluted using DMSO in […] serial dilution steps with 6 points (1000, 250, 62.5, 15.625, 3.9062, and 0.977 μM). The thereby-obtained solutions were further diluted in measuring buffer (1:100) as 10× stock serial dilutions with a DMSO concentration of 1%. 10 μL of a 10× stock was added into each well of an “antagonist plate” (see step 3.3.(4) below). Thus, the final concentrations of antagonists was as follows: 0.977, 3.906, 15.63, 62.5, 250, and 1000 nM containing 0.1% DMSO (see, e.g., FIG. 3B of U.S. Patent Application Publication No. US 2009/0170868 A1).
Steps (1) and (2) of this Assay were the same as steps 2.2.(1) and 2.2.(2), respectively, of Protocol 2. […]

[3] = Aqueous solubility at pH 1.2 and pH 6.8; assay type: physicochemical; details: aqueous solution
[4] = In vivo assay of body temperature increase (rectal body temperature); parameters: species or system rat; details: rats, oral, 10 mL/kg of 1 mg/mL in 0.5% methylcellulose; greatest ΔTb versus vehicle control at 0.5, 1 or 2 hrs
Text: Hyperthermia or undesirable elevation in animal body temperature is known to be an undesirable side-effect accompanying the administration of certain TRPV1 antagonists (Gavva, “Body-temperature maintenance as the predominant function of the vanilloid receptor TRPV1,” Trends Pharmacol. Sci. 29(11):550-557 (2008)).
Test Animals: Selection of rats (Crl/SD rats, 7 weeks, male) was based on rectal body temperature measured during the morning of the day of dosing as described below. In addition, to minimize spontaneous, stress-induced increases in body temperature, rats were acclimated in advance to both the rectal measurement procedure and to being handled and dosed. All lodging and testing took place in animal care laboratories with constant room temperature and humidity. The rats were free to move and ingest food and water throughout. Each rat was coded with a colored line on the tail, housed in a separate cage, and permitted the normal range of movement. Immediately before each body temperature measurement, a rat was transferred to a measurement cage. To reduce stress which could influence its body temperature, each rat was covered with towels during the measurement. A thermistor probe was then carefully inserted into the rectum of each rat and left in place until the temperature reading on the digital display had stabilized; this value was recorded.
Assay: On the day before dosing, rectal body temperature was measured at 9:00, 10:00, 11:00, 12:30, 13:30, 14:30, and 15:30 o'clock to familiarize the rats with the measurement procedure prior to administration of the test or control treatments. The rats were also dosed by oral gavage without vehicle at 12:30 o'clock to acclimate and familiarize them with the handling and dosing procedure.
On the day of dosing, only rats with rectal body temperatures within the range of from 37.0° C. to 37.7° C. were selected for study. Rectal body temperatures were measured at 9:00, 10:00, and 11:00 o'clock. Rats were excluded from the study if either their rectal body temperature was over 37.9° C. at 10:00 o'clock or was outside the range of from 37.0° C. to 37.7° C. at 11:00 o'clock. The selected rats were divided into several groups based on their rectal body temperatures at 11:00 o'clock. Rectal body temperatures of the selected rats were measured again at 12:30 o'clock and any rat with a rectal body temperature of 38.0° C. or greater was also excluded from the study.
Following assignment to either a test or control group, a test compound or a control was administered to the rats. Each test compound was dissolved in a vehicle of 0.5% aqueous methylcellulose solution and the final concentration of the test compound was adjusted to 1 mg/mL. Each test compound was orally administered once at a dose of 10 mL/kg. The same volume of the control (vehicle only) was administered once to the control group. Rectal body temperatures were measured at the following time points: 0.5, 1, and 2 hrs after administration.
The body temperature increase (ΔTb) for each test compound was calculated by subtracting, at each time point, the average temperature of the control group from the average temperature of the group administered that test compound. The greatest ΔTb obtained for each test compound at any of the time points is shown in Table 11 below, along with the ΔTb of the control.

[5] = pH 1.2, simulated gastric fluid, read-out: aqueous solubility at pH 1.2
[6] = pH 6.8, aqueous buffer, read-out: aqueous solubility at pH 6.8

IC50 (human TRPV1 [1]) [nM] | IC50 (human TRPV1 [2]) [nM] | solubility [3, 5] [µM] | solubility [3, 6] [µM] | ΔTb, body temperature increase [4] [°C] | Structure (SMILES)
444 ± 79 | 670 ± 94 | – | – | – | C[C@@H]1CN(C(=O)Nc2nc3ccccc3s2)CCN1c1ncc([C@H](O)CO)cc1F [A122(b), (R)—N-(benzo[d]thiazol-2-yl)-4-(5-((S)-1,2-dihydroxyethyl)-3-fluoropyridin-2-yl)-3-methylpiperazine-1-carboxamide]
178 ± 29 | 553 ± 12 | – | – | – | C[C@H]1CN(C(=O)Nc2nc3ccccc3s2)CCN1c1ncc([C@H](O)CO)cc1F [A122(c), (S)—N-(benzo[d]thiazol-2-yl)-4-{5-[(S)-1,2-dihydroxyethyl]-3-fluoropyridin-2-yl}-3-methylpiperazine-1-carboxamide]
11.5 ± 1.4 | 0.4 | – | – | – | C[C@@H]1CN(c2ncc([C@@H](O)CO)cc2F)CCN1C(=O)Nc1nc2ccc(Cl)cc2s1 [A123(e), (R)—N-(6-chlorobenzo[d]thiazol-2-yl)-4-(5-((R)-1,2-dihydroxyethyl)-3-fluoropyridin-2-yl)-2-methylpiperazine-1-carboxamide]
18.2 ± 2.9 | 0.4 | – | – | – | Cc1ccc2nc(NC(=O)N3CCN(c4ncc([C@@H](O)CO)cc4F)C[C@H]3C)sc2c1 [A126(e), (R)-4-(5-((R)-1,2-dihydroxyethyl)-3-fluoropyridin-2-yl)-2-methyl-N-(6-methylbenzo[d]thiazol-2-yl)piperazine-1-carboxamide]
216 ± 57 | 134 ± 16 | – | – | – | C[C@@H]1CN(C(=O)Nc2nc3cc(F)ccc3s2)CCN1c1ncc([C@H](O)CO)cc1F [A155(b), (R)-4-{5-[(S)-1,2-dihydroxyethyl]-3-fluoropyridin-2-yl}-N-(5-fluorobenzo[d]thiazol-2-yl)-3-methylpiperazine-1-carboxamide]
168 ± 42 | – | > 50 | 4 (≈ 1.8 µg/mL) | 0.1 | C[C@H]1CN(c2ncc([C@@H](O)CO)cc2F)CCN1C(=O)Nc1nc2cc(F)ccc2s1 [A155(d), (S)-4-{5-[(R)-1,2-dihydroxyethyl]-3-fluoropyridin-2-yl}-N-(5-fluorobenzo[d]thiazol-2-yl)-2-methylpiperazine-1-carboxamide]
16.5 ± 4.2 | – | > 50 | 5 (≈ 2.25 µg/mL) | 0.1 | C[C@@H]1CN(c2ncc([C@@H](O)CO)cc2F)CCN1C(=O)Nc1nc2cc(F)ccc2s1 [A155(e), (R)-4-{5-[(R)-1,2-dihydroxyethyl]-3-fluoropyridin-2-yl}-N-(5-fluorobenzo[d]thiazol-2-yl)-2-methylpiperazine-1-carboxamide]
586 ± 78 | 1720 | – | – | – | C[C@H](O)[C@@H](O)c1cnc(N2CCN(C(=O)Nc3nc4ccccc4s3)C[C@H]2C)c(F)c1 [B122(j), (R)—N-(benzo[d]thiazol-2-yl)-4-{5-[(1S,2S)-1,2-dihydroxypropyl]-3-fluoropyridin-2-yl}-3-methylpiperazine-1-carboxamide]
502 ± 128 | 2040 ± 245 | – | – | – | C[C@H](O)[C@@H](O)c1cnc(N2CCN(C(=O)Nc3nc4ccccc4s3)C[C@@H]2C)c(F)c1 [B122(k), (S)—N-(benzo[d]thiazol-2-yl)-4-{5-[(1S,2S)-1,2-dihydroxypropyl]-3-fluoropyridin-2-yl}-3-methylpiperazine-1-carboxamide]
107 ± 20 | – | – | – | – | C[C@H](O)[C@@H](O)c1cnc(N2CCN(C(=O)Nc3nc4cc(F)ccc4s3)[C@@H](C)C2)c(F)c1 [B155(h), (S)-4-{5-[(1S,2S)-1,2-dihydroxypropyl]-3-fluoropyridin-2-yl}-N-(5-fluorobenzo[d]thiazol-2-yl)-2-methylpiperazine-1-carboxamide]
